What all share (test): relative viability (nuclei count vs DMSO), 5 days (fraction); higher = more cells survive
Compound in the assay “GW-2580 + Pictilisib”: COC1=CC=C(C=C1)COC2=C(C=C(C=C2)CC3=CN=C(N=C3N)N)OC [GW-2580] + CS(=O)(=O)N1CCN(Cc2cc3nc(-c4cccc5[nH]ncc45)nc(N4CCOCC4)c3s2)CC1 [Pictilisib] (partner 1 µM)
A digest of the protocol:
(§1)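 Medians of duplicate plates are given as relative viability. That measure is the nuclei count in treated wells divided by the count in vehicle wells. Counts were taken on 4× images of lung cancer cell lines in 1536-well plates, 5 days after pin-tool dosing the day after seeding with one drug alone or a fixed anchor-drug dose plus five library-drug doses (not always all listed) in √10 steps.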

Compound in the assay “Fedratinib + Linsitinib”: Cc1cnc(Nc2ccc(OCCN3CCCC3)cc2)nc1Nc1cccc(S(=O)(=O)NC(C)(C)C)c1 [Fedratinib] + C[C@]1(O)C[C@@H](c2nc(-c3ccc4ccc(-c5ccccc5)nc4c3)c3c(N)nccn32)C1 [Linsitinib] (partner 1 µM)
The method in brief: as §1

Compound in the assay “GW-2580 + Luminespib”: COC1=CC=C(C=C1)COC2=C(C=C(C=C2)CC3=CN=C(N=C3N)N)OC [GW-2580] + CCNC(=O)c1noc(-c2cc(C(C)C)c(O)cc2O)c1-c1ccc(CN2CCOCC2)cc1 [Luminespib] (partner 0.01 µM)
A digest of the protocol: as §1

Compound in the assay “GW-2580 + Foretinib”: COC1=CC=C(C=C1)COC2=C(C=C(C=C2)CC3=CN=C(N=C3N)N)OC [GW-2580] + COc1cc2c(Oc3ccc(NC(=O)C4(C(=O)Nc5ccc(F)cc5)CC4)cc3F)ccnc2cc1OCCCN1CCOCC1 [Foretinib] (partner 0.25 µM)
A digest of the protocol: as §1

Compound in the assay “GW-2580 + Decitabine”: COC1=CC=C(C=C1)COC2=C(C=C(C=C2)CC3=CN=C(N=C3N)N)OC [GW-2580] + Nc1ncn([C@H]2C[C@H](O)[C@@H](CO)O2)c(=O)n1 [Decitabine] (partner 2 µM)
A digest of the protocol:
as §1

Turning to NCI-H650, the relative viability in the assay with GW-2580 + Pictilisib (first compound 0.08 µM) turned out to be 0.786; with GW-2580 + Pictilisib (first compound 0.8 µM) it was 0.979; with GW-2580 + Pictilisib (first compound 2.53 µM) it was 0.71; with GW-2580 + Pictilisib (first compound 8 µM), 0.78; with Fedratinib + Linsitinib (first compound 0.3162 µM), 0.994; in the assay with Fedratinib + Linsitinib (first compound 1 µM), 0.596. The relative viability was determined as 0.872 with GW-2580 + Luminespib (first compound 0.08 µM); 0.857 with GW-2580 + Luminespib (first compound 0.8 µM); 0.676 with GW-2580 + Luminespib (first compound 2.53 µM); 0.618 with GW-2580 + Luminespib (first compound 8 µM); 1.06 in the assay with GW-2580 + Foretinib (first compound 0.08 µM); 1.05 in the assay with GW-2580 + Foretinib (first compound 0.8 µM). Further, the relative viability with GW-2580 + Foretinib (first compound 2.53 µM) was 0.932; with GW-2580 + Foretinib (first compound 8 µM), 0.94; with GW-2580 + Decitabine (first compound 0.08 µM), 0.337; with GW-2580 + Decitabine (first compound 0.8 µM), 0.315; with GW-2580 + Decitabine (first compound 2.53 µM) it was 0.292; with GW-2580 + Decitabine (first compound 8 µM), 0.328.
Take NCI-H2085: the relative viability in the assay with GW-2580 + Pictilisib (first compound 0.08 µM) is 0.498; in the assay with GW-2580 + Pictilisib (first compound 0.8 µM), 0.386; with GW-2580 + Pictilisib (first compound 2.53 µM) it was 0.461; with GW-2580 + Pictilisib (first compound 8 µM), 0.494; with Fedratinib + Linsitinib (first compound 0.1 µM), 0.845; with Fedratinib + Linsitinib (first compound 0.3162 µM), 0.872. Besides, the relative viability with Fedratinib + Linsitinib (first compound 1 µM) amounted to 0.858; with GW-2580 + Luminespib (first compound 0.08 µM) it was 0.529; with GW-2580 + Luminespib (first compound 0.8 µM), 0.364; in the assay with GW-2580 + Luminespib (first compound 2.53 µM), 0.436; with GW-2580 + Luminespib (first compound 8 µM), 0.411; in the assay with GW-2580 + Foretinib (first compound 0.08 µM), 1. The relative viability turned out to be 0.895 with GW-2580 + Foretinib (first compound 0.8 µM); 1.08 in the assay with GW-2580 + Foretinib (first compound 2.53 µM); 0.758 in the assay with GW-2580 + Foretinib (first compound 8 µM); 0.577 with GW-2580 + Decitabine (first compound 0.08 µM); 0.542 with GW-2580 + Decitabine (first compound 0.8 µM); 0.541 with GW-2580 + Decitabine (first compound 2.53 µM). The relative viability with GW-2580 + Decitabine (first compound 8 µM) came out at 0.589.
Consider NCI-H1793, for which the relative viability came to 0.312 in the assay with GW-2580 + Pictilisib (first compound 0.08 µM); 0.33 with GW-2580 + Pictilisib (first compound 0.8 µM); 0.216 with GW-2580 + Pictilisib (first compound 2.53 µM); 0.254 with GW-2580 + Pictilisib (first compound 8 µM); 0.937 with Fedratinib + Linsitinib (first compound 0.1 µM); 0.857 in the assay with Fedratinib + Linsitinib (first compound 0.3162 µM). Further, the relative viability in the assay with Fedratinib + Linsitinib (first compound 1 µM) came out at 0.899; with GW-2580 + Luminespib (first compound 0.08 µM), 0.187; with GW-2580 + Luminespib (first compound 0.8 µM), 0.238; with GW-2580 + Luminespib (first compound 2.53 µM), 0.162; with GW-2580 + Luminespib (first compound 8 µM), 0.151; with GW-2580 + Foretinib (first compound 0.08 µM) it was 0.694. In addition, the relative viability with GW-2580 + Foretinib (first compound 0.8 µM) was determined as 0.758; in the assay with GW-2580 + Foretinib (first compound 2.53 µM), 0.584; with GW-2580 + Foretinib (first compound 8 µM) it was 0.58; with GW-2580 + Decitabine (first compound 0.08 µM), 0.493; with GW-2580 + Decitabine (first compound 0.8 µM), 0.614; with GW-2580 + Decitabine (first compound 2.53 µM), 0.473. Besides, the relative viability with GW-2580 + Decitabine (first compound 8 µM) was 0.503.
As for LC-2-ad, the relative viability with GW-2580 + Pictilisib (first compound 0.08 µM) worked out at 0.577; with GW-2580 + Pictilisib (first compound 0.8 µM) it was 0.502; in the assay with GW-2580 + Pictilisib (first compound 2.53 µM), 0.447; with GW-2580 + Pictilisib (first compound 8 µM), 0.413; with Fedratinib + Linsitinib (first compound 0.1 µM), 0.838; with Fedratinib + Linsitinib (first compound 0.3162 µM), 0.85. Also, the relative viability in the assay with Fedratinib + Linsitinib (first compound 1 µM) was determined as 0.71; with GW-2580 + Luminespib (first compound 0.08 µM) it was 1.03; with GW-2580 + Luminespib (first compound 0.8 µM), 1.07; with GW-2580 + Luminespib (first compound 2.53 µM), 1.12; in the assay with GW-2580 + Luminespib (first compound 8 µM) it was 1.02; with GW-2580 + Foretinib (first compound 0.08 µM) it was 0.826. For the same cell line, the relative viability stood at 0.931 in the assay with GW-2580 + Foretinib (first compound 0.8 µM); 0.991 in the assay with GW-2580 + Foretinib (first compound 2.53 µM); 0.936 with GW-2580 + Foretinib (first compound 8 µM); 0.82 in the assay with GW-2580 + Decitabine (first compound 0.08 µM); 0.913 in the assay with GW-2580 + Decitabine (first compound 0.8 µM); 0.833 with GW-2580 + Decitabine (first compound 2.53 µM). The relative viability in the assay with GW-2580 + Decitabine (first compound 8 µM) worked out at 0.815.

These data come from the supplement of paper PMC10307832.
